In patent US20240076285A1, “COMPOUNDS AND COMPOSITIONS FOR TREATING CONDITIONS ASSOCIATED WITH STING ACTIVITY” (IFM Due, Inc., priority 2020, published 2024):

target: T1, hSTING (Homo sapiens, UniProt Q86WV6, G230A/H232R/R293Q/R71H); experiment: STING reporter assay in THP1-Dual KO-IFNAR2 cells (2'3'cGAMP stimulation, luciferase reporter); assay type: cell-based; conditions: 15 μM 2'3'cGAMP, 24 h, class symbols
T1 construct: host or cells: THP1-Dual KO-IFNAR2 cells
Description: STING pathway activation by the compounds described herein was measured using THP1-Dual™ cells (KO-IFNAR2).
THP1-Dual™ KO-IFNAR2 Cells (obtained from invivogen) were maintained in RPMI, 10% FCS, 5 ml P/S, 2 mM L-glut, 10 mM Hepes, and 1 mM sodium pyruvate. Compounds were spotted in empty 384 well tissue culture plates (Greiner 781182) by Echo for a final concentration of 0.0017-100 μM. Cells were plated into the TC plates at 40 μL per well, 2×10E6 cells/mL. For activation with STING ligand, 2′3′cGAMP (MW 718.38, obtained from Invivogen), was prepared in Optimem media.
The following solutions were prepared for each 1×384 plate: • Solution A: 2 mL Optimem with one of the following stimuli: • 60 μL of 10 mM 2′3′cGAMP→150 μM stock • Solution B: 2 mL Optimem with 60 μL Lipofectamine 2000→Incubate 5 min at RT
2 mL of solution A and 2 ml Solution B was mixed and incubated for 20 min at room temperature (RT). 20 μL of transfection solution (A+B) was added on top of the plated cells, with a final 2′3′cGAMP concentration of 15 μM. The plates were then centrifuged immediately at 340 g for 1 minute, after which they were incubated at 37° C., 5% CO2, >98% humidity for 24 h. Luciferase reporter activity was then measured. EC50 values were calculated by using standard methods known in the art.
Luciferase reporter assay: 10 μL of supernatant from the assay was transferred to white 384-plate with flat bottom and squared wells. One pouch of QUANTI-Luc™ Plus was dissolved in 25 mL of water. 100 μL of QLC Stabilizer per 25 mL of QUANTI-Luc™ Plus solution was added. 50 μL of QUANTI-Luc™ Plus/QLC solution per well was then added. Luminescence was measured on a Platereader (e.g., Spectramax I3X (Molecular Devices GF3637001)).
Luciferase reporter activity was then measured. EC50 values were calculated by using standard methods known in the art.

T1 sequence (Q86WV6 whole entry R71H/G230A/H232R/R293Q): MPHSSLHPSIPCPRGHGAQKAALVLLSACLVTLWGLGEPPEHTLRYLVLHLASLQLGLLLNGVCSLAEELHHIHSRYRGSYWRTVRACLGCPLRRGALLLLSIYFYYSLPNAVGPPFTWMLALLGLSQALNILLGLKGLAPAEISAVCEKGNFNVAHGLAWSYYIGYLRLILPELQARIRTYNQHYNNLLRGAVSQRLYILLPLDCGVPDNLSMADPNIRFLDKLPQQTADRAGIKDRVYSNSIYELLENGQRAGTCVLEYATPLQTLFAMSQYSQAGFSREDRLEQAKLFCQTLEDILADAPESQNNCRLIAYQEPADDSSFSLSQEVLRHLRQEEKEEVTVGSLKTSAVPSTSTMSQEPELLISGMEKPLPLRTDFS

Row | Structure (SMILES) | EC50
1 | N#Cc1cc(Nc2ccc(F)c(Cl)c2)cc(Nc2cc(Cl)c3cc[nH]c3c2)n1 [Compound 169, 6-[(4-chloro-1H-indol-6-yl)amino]-4-[(3-chloro-4-fluorophenyl)amino]pyridine-2-carbonitrile] | 40 to 200 nM
2 | N#Cc1cc(Nc2cc(F)cc(F)c2)cc(Nc2cc(Cl)c3cc[nH]c3c2)n1 [Compound 170, 6-[(4-chloro-1H-indol-6-yl)amino]-4-[(3,5-difluorophenyl)amino]pyridine-2-carbonitrile] | 40 to 200 nM
3 | N#Cc1cc(Nc2cc(F)cc(Cl)c2)cc(Nc2cc(Cl)c3cc[nH]c3c2)n1 [Compound 171, 6-[(4-chloro-1H-indol-6-yl)amino]-4-[(3-chloro-5-fluorophenyl)amino]pyridine-2-carbonitrile] | 200 to 1000 nM
4 | Cc1nc2cc(Nc3cc(C#N)nc(Nc4cc(Cl)c5cc[nH]c5c4)c3)ccc2s1 [Compound 172, 6-[(4-chloro-1H-indol-6-yl)amino]-4-[(2-methyl-1,3-benzothiazol-5-yl)amino]pyridine-2-carbonitrile] | 200 to 1000 nM
5 | N#Cc1cc(Nc2ccc(C(F)(F)F)c(Cl)c2)cc(Nc2cc(Cl)c3cc[nH]c3c2)n1 [Compound 173, 6-[(4-chloro-1H-indol-6-yl)amino]-4-{[3-chloro-4-(trifluoromethyl)phenyl]amino}pyridine-2-carbonitrile] | 200 to 1000 nM
6 | CCc1ccc(Nc2cc(C#N)nc(Nc3cc(Cl)c4cc[nH]c4c3)c2)cn1 [Compound 174, 6-[(4-chloro-1H-indol-6-yl)amino]-4-[(6-ethylpyridin-3-yl)amino]pyridine-2-carbonitrile] | 200 to 1000 nM
7 | N#Cc1cc(Nc2cncc(Cl)c2)cc(Nc2cc(Cl)c3cc[nH]c3c2)n1 [Compound 175, 6-[(4-chloro-1H-indol-6-yl)amino]-4-[(5-chloropyridin-3-yl)amino]pyridine-2-carbonitrile] | 200 to 1000 nM
8 | Cc1nn(C)c2ccc(Nc3cc(C#N)nc(Nc4cc(Cl)c5cc[nH]c5c4)c3)cc12 [Compound 176, 6-[(4-chloro-1H-indol-6-yl)amino]-4-[(1,3-dimethyl-1H-indazol-5-yl)amino]pyridine-2-carbonitrile] | 200 to 1000 nM
9 | N#Cc1cc(Nc2ccc3c(c2)OC(F)(F)O3)cc(Nc2cc(Cl)c3cc[nH]c3c2)n1 [Compound 177, 6-[(4-chloro-1H-indol-6-yl)amino]-4-[(2,2-difluoro-2H-1,3-benzodioxol-5-yl)amino]pyridine-2-carbonitrile] | 40 to 200 nM
10 | CC1(C)C(=O)Nc2cc(Nc3cc(C#N)nc(Nc4cc(Cl)c5cc[nH]c5c4)c3)ccc21 [Compound 178, 6-[(4-chloro-1H-indol-6-yl)amino]-4-[(3,3-dimethyl-2-oxo-2,3-dihydro-1H-indol-6-yl)amino]pyridine-2-carbonitrile] | 200 to 1000 nM
11 | Cc1nc2ccc(Nc3cc(C#N)nc(Nc4cc(Cl)c5cc[nH]c5c4)c3)cc2s1 [Compound 179, 6-[(4-chloro-1H-indol-6-yl)amino]-4-[(2-methyl-1,3-benzothiazol-6-yl)amino]pyridine-2-carbonitrile] | 200 to 1000 nM
12 | N#Cc1cc(Nc2ccc3c(c2)C(=O)NC3)cc(Nc2cc(Cl)c3cc[nH]c3c2)n1 [Compound 180, 6-[(4-chloro-1H-indol-6-yl)amino]-4-[(3-oxo-2,3-dihydro-1H-isoindol-5-yl)amino]pyridine-2-carbonitrile] | 1000 to 5000 nM
13 | N#Cc1cc(Nc2ccc3c(c2)CC(=O)N3)cc(Nc2cc(Cl)c3cc[nH]c3c2)n1 [Compound 181, 6-[(4-chloro-1H-indol-6-yl)amino]-4-[(2-oxo-2,3-dihydro-1H-indol-5-yl)amino]pyridine-2-carbonitrile] | 1000 to 5000 nM
14 | N#Cc1cc(Nc2ccc(OC(F)F)nc2)cc(Nc2cc(Cl)c3cc[nH]c3c2)n1 [Compound 182, 6-[(4-chloro-1H-indol-6-yl)amino]-4-{[6-(difluoromethoxy)pyridin-3-yl]amino}pyridine-2-carbonitrile] | 40 to 200 nM
15 | N#Cc1cc(Nc2ccc(C(F)(F)F)nc2)cc(Nc2cc(Cl)c3cc[nH]c3c2)n1 [Compound 183, 6-[(4-chloro-1H-indol-6-yl)amino]-4-{[6-(trifluoromethyl)pyridin-3-yl]amino}pyridine-2-carbonitrile] | 200 to 1000 nM
16 | Cc1ccc(Nc2cc(C#N)nc(Nc3cc(Cl)c4cc[nH]c4c3)c2)cn1 [Compound 184, 6-[(4-chloro-1H-indol-6-yl)amino]-4-[(6-methylpyridin-3-yl)amino]pyridine-2-carbonitrile] | 200 to 1000 nM
17 | COc1cc(Cl)cc(Nc2cc(C#N)nc(Nc3cc(Cl)c4cc[nH]c4c3)c2)c1 [Compound 185, 6-[(4-chloro-1H-indol-6-yl)amino]-4-[(3-chloro-5-methoxyphenyl)amino]pyridine-2-carbonitrile] | 40 to 200 nM
18 | N#Cc1cc(Nc2cc(F)cc(C(F)(F)F)c2)cc(Nc2cc(Cl)c3cc[nH]c3c2)n1 [Compound 186, 6-[(4-chloro-1H-indol-6-yl)amino]-4-{[3-fluoro-5-(trifluoromethyl)phenyl]amino}pyridine-2-carbonitrile] | 200 to 1000 nM
19 | N#Cc1cc(Nc2cncc(C(F)(F)F)c2)cc(Nc2cc(Cl)c3cc[nH]c3c2)n1 [Compound 187, 6-[(4-chloro-1H-indol-6-yl)amino]-4-{[5-(trifluoromethyl)pyridin-3-yl]amino}pyridine-2-carbonitrile] | 200 to 1000 nM
20 | N#Cc1cc(Nc2ccc3c(c2)CCC3)cc(Nc2cc(Cl)c3cc[nH]c3c2)n1 [Compound 188, 6-[(4-chloro-1H-indol-6-yl)amino]-4-[(2,3-dihydro-1H-inden-5-yl)amino]pyridine-2-carbonitrile] | 40 to 200 nM
21 | N#Cc1cc(Nc2ccc3c(c2)OC(F)(F)C(F)(F)O3)cc(Nc2cc(Cl)c3cc[nH]c3c2)n1 [Compound 189, 6-[(4-chloro-1H-indol-6-yl)amino]-4-[(2,2,3,3-tetrafluoro-2,3-dihydro-1,4-benzodioxin-6-yl)amino]pyridine-2-carbonitrile] | 40 to 200 nM
22 | CNC(=O)c1ccc(Nc2cc(C#N)nc(Nc3cc(Cl)c4cc[nH]c4c3)c2)cc1F [Compound 190, 4-({2-[(4-chloro-1H-indol-6-yl)amino]-6-cyanopyridin-4-yl}amino)-2-fluoro-N-methylbenzamide] | 1000 to 5000 nM
23 | N#Cc1cc(Nc2ccc3c(c2)OCCO3)cc(Nc2cc(Cl)c3cc[nH]c3c2)n1 [Compound 191, 6-[(4-chloro-1H-indol-6-yl)amino]-4-[(2,3-dihydro-1,4-benzodioxin-6-yl)amino]pyridine-2-carbonitrile] | 1000 to 5000 nM
